Data taken from ChEMBL document CHEMBL5647681, “Lack of the aryl hydrocarbon receptor leads to impaired activation of AKT/protein kinase B and enhanced sensitivity to apoptosis induced via the intrinsic pathway” (J Pharmacol Exp Ther, 2007).
Calls of active or inactive are those of the source. The rule behind the calls is not given here.

Tests used:
[1] = Toxicity in AHR deficient mouse LA1 cells assessed as induction of apoptosis by measuring increase in caspase-3 activity at 0.1 to 1 uM incubated for 24 hrs in absence of UV-irradiation by caspase 3 Assay; details: la1, 24 h
[2] = system: LA1; experiment: Potentiation of UV-irradiation-induced apoptosis in AHR deficient mouse LA1 cells assessed as increase in caspase-3 activity at 0.1 to 1 uM incubated for 24 hrs before UV-irradiation for 24 hrs by caspase 3 Assay; details: dose 0.1-1 µM, time 48.0 hrs
[3] = biological target: Aryl hydrocarbon receptor (Mus musculus) (UniProt P30561); experiment: Antagonist activity at AHR in wild type mouse Hepa1c1c7 cells assessed as reduction in inhibition of EGFR phosphorylation at 10 uM incubated for 24 hrs before UV-irradiation and measured after 30 mins by Western blot analysis; details: hepa1c1c7, 24 h
[4] = biological target: Aryl hydrocarbon receptor (Mus musculus) (UniProt P30561); experiment: Antagonist activity at AHR in wild type mouse Hepa1c1c7 cells assessed as reduction in inhibition of Akt/PKB phosphorylation at 10 uM incubated for 24 hrs before UV-irradiation and measured after 30 to 60 mins by Western blot analysis; details: hepa1c1c7, 10 µM
[5] = biological target: Aryl hydrocarbon receptor (Mus musculus) (UniProt P30561); experiment: Antagonist activity at AHR in wild type mouse Hepa1c1c7 cells assessed as potentiation of UV-irradiation-induced apoptosis by measuring increase in caspase-3 activity at 0.1 to 1 uM incubated for 24 hrs before UV-irradiation for 24 hrs by caspase 3 Assay; details: hepa1c1c7, 48 h

Chain of Aryl hydrocarbon receptor (Mus musculus) (P30561 whole entry, looked up): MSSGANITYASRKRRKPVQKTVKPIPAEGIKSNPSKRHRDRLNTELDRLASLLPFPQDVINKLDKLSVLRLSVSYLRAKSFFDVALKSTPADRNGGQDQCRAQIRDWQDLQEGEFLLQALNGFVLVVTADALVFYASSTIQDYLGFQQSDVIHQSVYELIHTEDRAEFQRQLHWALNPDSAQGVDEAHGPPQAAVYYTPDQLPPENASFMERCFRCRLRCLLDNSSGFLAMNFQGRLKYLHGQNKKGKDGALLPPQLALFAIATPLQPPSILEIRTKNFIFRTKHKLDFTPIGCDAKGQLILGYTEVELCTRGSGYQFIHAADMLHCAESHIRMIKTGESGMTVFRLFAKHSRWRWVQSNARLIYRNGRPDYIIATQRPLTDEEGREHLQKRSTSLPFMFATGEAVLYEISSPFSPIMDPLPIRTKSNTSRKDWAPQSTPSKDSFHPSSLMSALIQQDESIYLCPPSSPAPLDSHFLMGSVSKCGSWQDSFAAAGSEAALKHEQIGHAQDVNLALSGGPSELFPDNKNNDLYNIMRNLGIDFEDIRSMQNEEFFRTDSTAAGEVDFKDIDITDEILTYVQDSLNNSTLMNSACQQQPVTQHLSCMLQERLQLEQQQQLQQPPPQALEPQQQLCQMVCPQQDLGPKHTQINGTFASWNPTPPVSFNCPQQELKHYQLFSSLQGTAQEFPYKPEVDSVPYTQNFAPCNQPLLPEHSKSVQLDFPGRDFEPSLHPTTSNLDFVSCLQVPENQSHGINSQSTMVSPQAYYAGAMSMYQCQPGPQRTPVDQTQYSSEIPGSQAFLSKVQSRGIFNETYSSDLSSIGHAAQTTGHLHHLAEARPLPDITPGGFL

COc1cc(-c2cc(=O)c3ccccc3o2)ccc1[N+](=O)[O-]
Activity [1]: Non-Toxic
Activity [2]: Active
Activity [3]: Active
Activity [4]: Active
Activity [5]: Active
